The nature of data set [1]: Plasma protein binding in human. The data set is classed as ADME, cell-free. The note with it: read-out: PPB.
A short description of data set [2]: Plasma protein binding in rat. The data set is classed as ADME, cell-free. Particulars: read-out: PPB.
Data set [3] addresses T1, Mineralocorticoid receptor (Homo sapiens, UniProt P08235).
T1 sequence (P08235 whole entry): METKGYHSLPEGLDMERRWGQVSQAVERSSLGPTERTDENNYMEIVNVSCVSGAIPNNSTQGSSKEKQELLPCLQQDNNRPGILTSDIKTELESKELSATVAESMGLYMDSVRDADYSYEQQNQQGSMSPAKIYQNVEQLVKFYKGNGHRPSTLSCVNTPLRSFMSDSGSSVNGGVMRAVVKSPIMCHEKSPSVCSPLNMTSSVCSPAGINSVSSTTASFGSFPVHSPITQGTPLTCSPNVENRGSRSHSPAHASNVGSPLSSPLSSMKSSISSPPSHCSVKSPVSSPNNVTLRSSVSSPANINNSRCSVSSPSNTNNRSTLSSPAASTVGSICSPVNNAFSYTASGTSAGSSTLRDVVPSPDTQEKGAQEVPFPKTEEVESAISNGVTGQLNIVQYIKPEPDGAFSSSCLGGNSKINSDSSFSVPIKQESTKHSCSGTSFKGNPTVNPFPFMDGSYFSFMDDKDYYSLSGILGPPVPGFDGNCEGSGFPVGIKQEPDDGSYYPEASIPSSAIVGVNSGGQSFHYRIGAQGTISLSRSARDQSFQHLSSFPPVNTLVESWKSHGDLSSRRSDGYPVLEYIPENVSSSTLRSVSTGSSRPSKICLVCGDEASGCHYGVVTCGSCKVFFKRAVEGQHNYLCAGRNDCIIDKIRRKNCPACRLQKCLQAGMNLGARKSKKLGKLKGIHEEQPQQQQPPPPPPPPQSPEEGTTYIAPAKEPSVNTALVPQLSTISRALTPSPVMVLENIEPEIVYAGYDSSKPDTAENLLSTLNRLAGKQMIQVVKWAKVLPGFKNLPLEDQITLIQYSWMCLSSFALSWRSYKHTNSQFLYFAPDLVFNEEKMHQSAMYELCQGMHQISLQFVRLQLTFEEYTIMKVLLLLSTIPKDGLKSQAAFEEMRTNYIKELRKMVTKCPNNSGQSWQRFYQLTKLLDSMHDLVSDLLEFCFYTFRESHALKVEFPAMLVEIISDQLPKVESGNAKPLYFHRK
As to the kind of experiment: Binding affinity to mineralocorticoid receptor (unknown origin).

The test system of another data set is Rattus norvegicus. As to the kind of experiment: Natriuretic activity in po dosed WKY rat measured over 6 hrs. The format is functional, organism-based.
Data set [4] is filed under the species Homo sapiens. The data set can be described thus: Selectivity ratio of IC50 for human estrogen receptor beta to IC50 for human mineralocorticoid receptor.
Data set [5] is filed under the species Homo sapiens. The data set can be described thus: Selectivity ratio of IC50 for human androgen receptor to IC50 for human mineralocorticoid receptor.
The species named for data set [6] is Homo sapiens. As to the kind of experiment: Selectivity ratio of IC50 for human glucocorticoid receptor to IC50 for human mineralocorticoid receptor.
Data set [7] is filed under the species Homo sapiens. As to the kind of experiment: Selectivity ratio of IC50 for human estrogen receptor alpha to IC50 for human mineralocorticoid receptor.
Data set [8] is filed under the species Homo sapiens. As to the kind of experiment: Selectivity ratio of IC50 for human progesterone receptor beta to IC50 for human mineralocorticoid receptor.

SMILES strings stand for the structures. Activity calls are given as the source filed them. No cut-off for these calls is given here.

As usually defined, the Ki is a dissociation constant, usually derived from enzyme kinetics or from competition with a known ligand.

Consider `C[C@H](c1ccc(F)cc1)N1C(=O)O[C@](Cc2ccccc2)(c2nc3cc(C(F)(F)F)ccc3[nH]2)C1=O`, for which the fraction unbound in data set [1] and in data set [2] was less than 0.01 each time.

Regarding `C[C@H](c1ccc(F)cc1)N1C(=O)O[C@](Cc2ccccc2)(c2nc3cc(Cl)ccc3[nH]2)C1=O`, the fraction unbound in data set [1] and in data set [2] was less than 0.01 in each case. In addition, in [3], the inhibitory constant (Ki) was 2 nM. In addition, the outcome with Rattus norvegicus was Active.

`C[C@H](c1ccc(F)cc1)N1C(=O)O[C@](Cc2ccccc2)(c2nc3cc(N4CCOCC4)ccc3[nH]2)C1=O`: the Ratio IC50 in the data set listed under Homo sapiens [4], in the data set filed under Homo sapiens [5], in the data set filed under Homo sapiens [6], in the data set filed under Homo sapiens [7] and in the data set listed under Homo sapiens [8] was greater than 40 each time. In the data set with Rattus norvegicus, the Activity result was “Dose-dependent effect”.

For the compound `C[C@H](c1ccc(F)cc1)N1C(=O)O[C@](Cc2ccccc2)(c2nc3cc(NS(C)(=O)=O)ccc3[nH]2)C1=O`, the result in the data set with Rattus norvegicus was Active.

As to `C[C@H](c1ccc(F)cc1)N1C(=O)O[C@](Cc2ccccc2)(c2nc3cc(-c4cccnc4)ccc3[nH]2)C1=O`, the Ratio IC50 in the data set listed under Homo sapiens [4] was greater than 40; in the data set listed under Homo sapiens [5], 110; in the data set filed under Homo sapiens [6] it was greater than 40; in the data set filed under Homo sapiens [7], greater than 40; in the data set listed under Homo sapiens [8], greater than 40. Besides, the fraction unbound in data set [1] and in data set [2] was less than 0.01 in each case. Further, in the data set with Rattus norvegicus, the result was Active.

Consider `Cc1nocc1-c1ccc2[nH]c([C@@]3(Cc4ccccc4)OC(=O)N([C@H](C)c4ccc(F)cc4)C3=O)nc2c1`, for which the Ratio IC50 in the data set listed under Homo sapiens [4] is greater than 40; in the data set filed under Homo sapiens [5], 90; in the data set listed under Homo sapiens [6], greater than 40; in the data set listed under Homo sapiens [7] it was greater than 40; in the data set listed under Homo sapiens [8] it was greater than 40.

Source of the values: ChEMBL document CHEMBL3576820, “Discovery of benzimidazole oxazolidinediones as novel and selective nonsteroidal mineralocorticoid receptor antagonists” (ACS Med Chem Lett, 2015).
